{"source": "the supplement of paper PMC12137928", "system": "HCT116", "conditions": "72 h", "outline": "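HCT116 cells were seeded at 250 per well in 1536-well plates with 5 h allowed for attachment. CellTiter-Glo luminescence was normalized against vehicle (0%) and positive control (-100%) before pattern correction. The IC50 and maximal efficacy figures derive from four-parameter Hill fits.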", "note": "Counter-ions that a name gives are not always drawn."}
{"compound": "CC(C)(C)NCC(O)COc1cccc2c1CCC(=O)N2", "note": "(stereo unspecified) [Carteolol hydrochloride]", "values": [{"measurement": "IC50 cell viability", "setting": "ICRF193 0 nM", "result": "> 45.8", "unit": "µM"}, {"measurement": "IC50 cell viability", "setting": "ICRF193 200 nM", "result": "> 45.8", "unit": "µM"}]}
{"compound": "CC[C@H](C)C[C@H](C)CCCCCCCCC(=O)N[C@H]1C[C@@H](O)[C@@H](NCCN)NC(=O)[C@@H]2[C@@H](O)CCN2C(=O)[C@H]([C@H](O)CCN)NC(=O)[C@H]([C@H](O)[C@@H](O)c2ccc(O)cc2)NC(=O)[C@@H]2C[C@@H](O)CN2C(=O)[C@H]([C@@H](C)O)NC1=O", "note": "[Caspofungin Acetate]", "values": [{"measurement": "IC50 cell viability", "setting": "ICRF193 0 nM", "result": "> 45.8", "unit": "µM"}, {"measurement": "IC50 cell viability", "setting": "ICRF193 200 nM", "result": "> 45.8", "unit": "µM"}]}
{"compound": "CC(=O)OCC1=C(C(=O)O)N2C(=O)[C@@H](NC(=O)CC#N)[C@H]2SC1", "note": "[Cefacetrile]", "values": [{"measurement": "IC50 cell viability", "setting": "ICRF193 0 nM", "result": "> 45.8", "unit": "µM"}, {"measurement": "IC50 cell viability", "setting": "ICRF193 200 nM", "result": "> 45.8", "unit": "µM"}]}
{"compound": "CC1=C(C(=O)O)N2C(=O)[C@@H](NC(=O)[C@H](N)c3ccc(O)cc3)[C@H]2SC1", "note": "[Cefadroxil]", "values": [{"measurement": "IC50 cell viability", "setting": "ICRF193 0 nM", "result": "> 45.8", "unit": "µM"}, {"measurement": "IC50 cell viability", "setting": "ICRF193 200 nM", "result": "> 45.8", "unit": "µM"}]}
{"compound": "NC(=O)c1cc[n+](CC2=C(C(=O)[O-])N3C(=O)[C@@H](NC(=O)Cc4cccs4)[C@H]3SC2)cc1", "note": "[Cefalonium]", "values": [{"measurement": "IC50 cell viability", "setting": "ICRF193 0 nM", "result": "> 45.8", "unit": "µM"}, {"measurement": "IC50 cell viability", "setting": "ICRF193 200 nM", "result": "> 45.8", "unit": "µM"}]}
{"compound": "Cn1nnnc1SCC1=C(C(=O)O)N2C(=O)[C@@H](NC(=O)[C@H](OC=O)c3ccccc3)[C@H]2SC1", "note": "[Cefamandole (nafate)]", "values": [{"measurement": "IC50 cell viability", "setting": "ICRF193 0 nM", "result": "> 45.8", "unit": "µM"}, {"measurement": "IC50 cell viability", "setting": "ICRF193 200 nM", "result": "> 45.8", "unit": "µM"}]}
{"compound": "N[C@@H](C(=O)N[C@@H]1C(=O)N2C(C(=O)O)=C(CSc3c[nH]nn3)CS[C@H]12)c1ccc(O)cc1", "note": "[Cefatrizine]", "values": [{"measurement": "IC50 cell viability", "setting": "ICRF193 0 nM", "result": "> 45.8", "unit": "µM"}, {"measurement": "IC50 cell viability", "setting": "ICRF193 200 nM", "result": "> 45.8", "unit": "µM"}]}
{"compound": "Cc1nnc(SCC2=C(C(=O)O)N3C(=O)[C@@H](NC(=O)Cn4cnnn4)[C@H]3SC2)s1", "note": "[Cefazolin]", "values": [{"measurement": "IC50 cell viability", "setting": "ICRF193 0 nM", "result": "> 45.8", "unit": "µM"}, {"measurement": "IC50 cell viability", "setting": "ICRF193 200 nM", "result": "> 45.8", "unit": "µM"}]}
{"compound": "CCN1CCN(C(=O)N[C@@H](C(=O)N[C@]2(OC)C(=O)N3C(C(=O)O)=C(CSc4nnnn4C)CS[C@@H]32)[C@H](C)O)C(=O)C1=O", "note": "[Cefbuperazone]", "values": [{"measurement": "IC50 cell viability", "setting": "ICRF193 0 nM", "result": "> 45.8", "unit": "µM"}, {"measurement": "IC50 cell viability", "setting": "ICRF193 200 nM", "result": "> 45.8", "unit": "µM"}]}
{"compound": "CC/C=C(\\C(=O)N[C@@H]1C(=O)N2C(C(=O)OCOC(=O)C(C)(C)C)=C(COC(N)=O)CS[C@H]12)c1csc(N)n1", "note": "[Cefcapene pivoxil hydrochloride]", "values": [{"measurement": "IC50 cell viability", "setting": "ICRF193 0 nM", "result": "> 45.8", "unit": "µM"}, {"measurement": "IC50 cell viability", "setting": "ICRF193 200 nM", "result": "> 45.8", "unit": "µM"}]}
{"compound": "C=CC1=C(C(=O)O)N2C(=O)[C@@H](NC(=O)/C(=N\\O)c3csc(N)n3)[C@H]2SC1", "note": "[Cefdinir]", "values": [{"measurement": "IC50 cell viability", "setting": "ICRF193 0 nM", "result": "> 45.8", "unit": "µM"}, {"measurement": "IC50 cell viability", "setting": "ICRF193 200 nM", "result": "> 45.8", "unit": "µM"}]}
{"compound": "CO/N=C(\\C(=O)N[C@@H]1C(=O)N2C(C(=O)OCOC(=O)C(C)(C)C)=C(/C=C\\c3scnc3C)CS[C@H]12)c1csc(N)n1", "note": "[Cefditoren (Pivoxil)]", "values": [{"measurement": "IC50 cell viability", "setting": "ICRF193 0 nM", "result": "> 45.8", "unit": "µM"}, {"measurement": "IC50 cell viability", "setting": "ICRF193 200 nM", "result": "> 45.8", "unit": "µM"}]}
{"compound": "CO/N=C(/C(=O)N[C@@H]1C(=O)N2C(C(=O)OCOC(=O)C(C)(C)C)=C(C)CS[C@H]12)c1csc(N)n1", "note": "[Cefetamet pivoxil HCl]", "values": [{"measurement": "IC50 cell viability", "setting": "ICRF193 0 nM", "result": "> 45.8", "unit": "µM"}, {"measurement": "IC50 cell viability", "setting": "ICRF193 200 nM", "result": "> 45.8", "unit": "µM"}]}
{"compound": "C=CC1=C(C(=O)O)N2C(=O)[C@@H](NC(=O)/C(=N\\OCC(=O)O)c3csc(N)n3)[C@H]2SC1", "note": "[Cefixime]", "values": [{"measurement": "IC50 cell viability", "setting": "ICRF193 0 nM", "result": "> 45.8", "unit": "µM"}, {"measurement": "IC50 cell viability", "setting": "ICRF193 200 nM", "result": "> 45.8", "unit": "µM"}]}
{"compound": "CO[C@@]1(NC(=O)CSCC#N)C(=O)N2C(C(=O)O)=C(CSc3nnnn3C)CS[C@@H]21", "note": "[Cefmetazole sodium]", "values": [{"measurement": "IC50 cell viability", "setting": "ICRF193 0 nM", "result": "> 45.8", "unit": "µM"}, {"measurement": "IC50 cell viability", "setting": "ICRF193 200 nM", "result": "> 45.8", "unit": "µM"}]}
{"compound": "CO[C@@]1(NC(=O)CSC[C@@H](N)C(=O)O)C(=O)N2C(C(=O)O)=C(CSc3nnnn3C)CS[C@@H]21", "note": "[Cefminox sodium]", "values": [{"measurement": "IC50 cell viability", "setting": "ICRF193 0 nM", "result": "> 45.8", "unit": "µM"}, {"measurement": "IC50 cell viability", "setting": "ICRF193 200 nM", "result": "> 45.8", "unit": "µM"}]}
{"compound": "CCN1CCN(C(=O)N[C@@H](C(=O)N[C@@H]2C(=O)N3C(C(=O)O)=C(CSc4nnnn4C)CS[C@H]23)c2ccc(O)cc2)C(=O)C1=O", "note": "[Cefoperazone sodium]", "values": [{"measurement": "IC50 cell viability", "setting": "ICRF193 0 nM", "result": "> 45.8", "unit": "µM"}, {"measurement": "IC50 cell viability", "setting": "ICRF193 200 nM", "result": "> 45.8", "unit": "µM"}]}
{"compound": "NCc1ccccc1CC(=O)N[C@@H]1C(=O)N2C(C(=O)O)=C(CSc3nnnn3CC(=O)O)CS[C@H]12", "note": "[Ceforanide]", "values": [{"measurement": "IC50 cell viability", "setting": "ICRF193 0 nM", "result": "> 45.8", "unit": "µM"}, {"measurement": "IC50 cell viability", "setting": "ICRF193 200 nM", "result": "> 45.8", "unit": "µM"}]}
{"compound": "CO/N=C(\\C(=O)N[C@@H]1C(=O)N2C(C(=O)[O-])=C(C[n+]3ccc(N)n3CCO)CS[C@H]12)c1csc(N)n1", "note": "[Cefoselis (sulfate)]", "values": [{"measurement": "IC50 cell viability", "setting": "ICRF193 0 nM", "result": "> 45.8", "unit": "µM"}, {"measurement": "IC50 cell viability", "setting": "ICRF193 200 nM", "result": "> 45.8", "unit": "µM"}]}
{"compound": "CO/N=C(\\C(=O)N[C@@H]1C(=O)N2C(C(=O)O)=C(COC(C)=O)CS[C@H]12)c1csc(N)n1", "note": "[Cefotaxime sodium salt]", "values": [{"measurement": "IC50 cell viability", "setting": "ICRF193 0 nM", "result": "> 45.8", "unit": "µM"}, {"measurement": "IC50 cell viability", "setting": "ICRF193 200 nM", "result": "> 45.8", "unit": "µM"}]}
{"compound": "CN(C)CCn1nnnc1SCC1=C(C(=O)O)N2C(=O)[C@@H](NC(=O)Cc3csc(N)n3)[C@H]2SC1", "note": "[Cefotiam hydrochloride]", "values": [{"measurement": "IC50 cell viability", "setting": "ICRF193 0 nM", "result": "> 45.8", "unit": "µM"}, {"measurement": "IC50 cell viability", "setting": "ICRF193 200 nM", "result": "> 45.8", "unit": "µM"}]}
{"compound": "CO[C@@]1(NC(=O)Cc2cccs2)C(=O)N2C(C(=O)O)=C(COC(N)=O)CS[C@@H]21", "note": "[Cefoxitin]", "values": [{"measurement": "IC50 cell viability", "setting": "ICRF193 0 nM", "result": "> 45.8", "unit": "µM"}, {"measurement": "IC50 cell viability", "setting": "ICRF193 200 nM", "result": "> 45.8", "unit": "µM"}]}
{"compound": "CO/N=C(\\C(=O)N[C@@H]1C(=O)N2C(C(=O)[O-])=C(C[n+]3ccn4ncccc43)CS[C@H]12)c1nsc(N)n1", "note": "[Cefozopran hydrochloride]", "values": [{"measurement": "IC50 cell viability", "setting": "ICRF193 0 nM", "result": "> 45.8", "unit": "µM"}, {"measurement": "IC50 cell viability", "setting": "ICRF193 200 nM", "result": "> 45.8", "unit": "µM"}]}
{"compound": "Cc1cc(O)c(C(=O)N[C@@H](C(=O)N[C@@H]2C(=O)N3C(C(=O)O)=C(CSc4nnnn4C)CS[C@H]23)c2ccc(O)cc2)cn1", "note": "[Cefpiramide (sodium)]", "values": [{"measurement": "IC50 cell viability", "setting": "ICRF193 0 nM", "result": "> 45.8", "unit": "µM"}, {"measurement": "IC50 cell viability", "setting": "ICRF193 200 nM", "result": "> 45.8", "unit": "µM"}]}
{"compound": "CC=CC1=C(C(=O)O)N2C(=O)[C@@H](NC(=O)[C@H](N)c3ccc(O)cc3)[C@H]2SC1", "note": "[Cefprozil]", "values": [{"measurement": "IC50 cell viability", "setting": "ICRF193 0 nM", "result": "> 45.8", "unit": "µM"}, {"measurement": "IC50 cell viability", "setting": "ICRF193 200 nM", "result": "> 45.8", "unit": "µM"}]}
{"compound": "COC1=C(C(=O)O)N2C(=O)[C@@H](NC(=O)[C@H](N)C3=CCC=CC3)[C@H]2SC1", "note": "[Cefroxadine]", "values": [{"measurement": "IC50 cell viability", "setting": "ICRF193 0 nM", "result": "> 45.8", "unit": "µM"}, {"measurement": "IC50 cell viability", "setting": "ICRF193 200 nM", "result": "> 45.8", "unit": "µM"}]}
{"compound": "NC(=O)c1cc[n+](CC2=C(C(=O)[O-])N3C(=O)[C@@H](NC(=O)[C@@H](c4ccccc4)S(=O)(=O)O)[C@H]3SC2)cc1", "note": "[Cefsulodin Sodium Salt]", "values": [{"measurement": "IC50 cell viability", "setting": "ICRF193 0 nM", "result": "> 45.8", "unit": "µM"}, {"measurement": "IC50 cell viability", "setting": "ICRF193 200 nM", "result": "> 45.8", "unit": "µM"}]}
{"compound": "CC(C)(O/N=C(\\C(=O)N[C@@H]1C(=O)N2C(C(=O)[O-])=C(C[n+]3ccccc3)CS[C@H]12)c1csc(N)n1)C(=O)O", "note": "[Ceftazidime]", "values": [{"measurement": "IC50 cell viability", "setting": "ICRF193 0 nM", "result": "> 45.8", "unit": "µM"}, {"measurement": "IC50 cell viability", "setting": "ICRF193 200 nM", "result": "> 45.8", "unit": "µM"}]}
